Measurements as given in paper PMC4077236 (Neurochemistry International, 2014).
“And” between values parts separate entries of the source, which are not always exact repeats. Identical values can stand only once. “Also recorded” adds a separate entry of the source. Like-named read-outs stand apart in the source and are kept apart here.

How the values were obtained:
[1] = biological target: T1, human SERT (Homo sapiens, UniProt P31645)
[2] = biological target: T2, human NET (Homo sapiens, UniProt P23975)
T2 sequence (P23975 whole entry): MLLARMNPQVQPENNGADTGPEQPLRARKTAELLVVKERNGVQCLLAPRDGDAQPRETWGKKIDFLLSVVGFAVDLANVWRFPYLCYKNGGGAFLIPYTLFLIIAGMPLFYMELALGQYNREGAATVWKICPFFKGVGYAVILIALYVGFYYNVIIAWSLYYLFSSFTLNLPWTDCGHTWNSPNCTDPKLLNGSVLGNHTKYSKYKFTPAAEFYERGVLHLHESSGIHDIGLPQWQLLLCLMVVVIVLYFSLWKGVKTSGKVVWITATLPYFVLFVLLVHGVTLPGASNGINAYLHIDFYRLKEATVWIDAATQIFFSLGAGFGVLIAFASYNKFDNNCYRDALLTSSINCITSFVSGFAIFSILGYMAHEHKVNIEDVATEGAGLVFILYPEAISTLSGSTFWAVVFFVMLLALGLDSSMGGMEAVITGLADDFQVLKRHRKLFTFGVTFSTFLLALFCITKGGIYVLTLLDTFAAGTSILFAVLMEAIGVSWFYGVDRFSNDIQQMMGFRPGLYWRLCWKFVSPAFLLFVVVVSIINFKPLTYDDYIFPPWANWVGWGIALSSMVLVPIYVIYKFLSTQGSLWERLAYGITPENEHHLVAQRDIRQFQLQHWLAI

[3] = biological target: T3, human DAT (Homo sapiens, UniProt Q01959)
T3 sequence (Q01959 whole entry): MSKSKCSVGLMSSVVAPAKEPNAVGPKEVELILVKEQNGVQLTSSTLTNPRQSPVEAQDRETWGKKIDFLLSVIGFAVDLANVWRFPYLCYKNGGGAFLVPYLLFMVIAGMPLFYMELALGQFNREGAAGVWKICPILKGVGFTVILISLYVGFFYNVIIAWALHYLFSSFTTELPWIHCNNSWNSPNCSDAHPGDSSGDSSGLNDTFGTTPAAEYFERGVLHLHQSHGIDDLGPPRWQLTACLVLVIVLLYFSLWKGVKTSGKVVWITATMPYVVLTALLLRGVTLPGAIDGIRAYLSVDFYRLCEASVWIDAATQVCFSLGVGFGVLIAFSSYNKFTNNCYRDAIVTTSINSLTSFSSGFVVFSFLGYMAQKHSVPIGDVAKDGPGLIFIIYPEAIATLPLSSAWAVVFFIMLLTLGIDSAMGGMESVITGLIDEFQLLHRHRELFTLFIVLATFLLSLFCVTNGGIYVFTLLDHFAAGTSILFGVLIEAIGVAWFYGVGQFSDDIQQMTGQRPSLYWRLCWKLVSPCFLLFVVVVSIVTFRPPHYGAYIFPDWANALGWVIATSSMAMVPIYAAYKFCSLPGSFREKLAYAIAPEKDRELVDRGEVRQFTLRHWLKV
Protocol: (§1) In brief, the cells were washed twice with Krebs–Ringer–HEPES buffer (KHB; composition: 25 mM HEPES·NaOH, pH 7.4, 120 mM NaCl, 5 mM KCl, 1.2 mM CaCl2, and 1.2 mM MgSO4 supplemented with 5 mM D-glucose). Then, the diluted reference and sample compounds were added and incubated for 5 min to allow for equilibration with the transporters. Subsequently, the tritiated substrates were added and the reaction was stopped after 1 min (SERT and DAT) and 3 min (NET), respectively. Cells were lysed with 1% SDS and the released radioactivity was quantified by liquid scintillation counting. All determinations were performed in duplicate or triplicate.
(§2) The release of [^3H] labelled substrate was expressed as fractional rate (i.e., the radioactivity released within one fraction was expressed as a percentage of the total radioactivity present in the cells at the beginning of that fraction). Drug-induced release was calculated by subtracting the estimated basal release from total release during the first 8 min of drug exposure and is expressed as a percentage of radioactivity in the cell at the beginning of drug exposure. Data were normalized by using cpm values with no substance present (only solvent) as 100%. IC50 values were calculated using non-linear regression fits performed with Prism software (GraphPad 5.0, San Diego, CA, U.S.A.). Data transformed into Dixon plots were fitted by linear regression.

[4] = biological target: T1, human SERT; remark: listed apart in the source
Protocol: (§3) For release studies, HEK-SERT, HEK-NET, or HEK-DAT cells were grown overnight on round glass coverslips (5-mm diameter, 40,000 cells per coverslip) placed in a 96-well plate and preloaded with 0.4 μM [^3H]dopamine, 0.1 μM [^3H]MPP+, or 0.4 μM [^3H]5-HT for 20 min at 37 °C in a final volume of 0.1 mL/well. […] A washout period of 40 min established a stable baseline for efflux of radioactivity; thereafter, substances were added and the experiment was started with the collection of fractions (2 min). At the end of the experiment, cells were lysed in 1% SDS and the released radioactivity was quantified by liquid scintillation counting.
(§4) The release of [^3H] labelled substrate was expressed as fractional rate (i.e., the radioactivity released within one fraction was expressed as a percentage of the total radioactivity present in the cells at the beginning of that fraction). Drug-induced release was calculated by subtracting the estimated basal release from total release during the first 8 min of drug exposure and is expressed as a percentage of radioactivity in the cell at the beginning of drug exposure. Data were normalized by using cpm values with no substance present (only solvent) as 100%.

[5] = biological target: T2, human NET; remark: listed apart in the source
Protocol: as §3, §4

[6] = biological target: T3, human DAT; remark: listed apart in the source
Protocol: as §3, §4

[7] = biological target: T1, human SERT; test: cell-based
[8] = biological target: T2, human NET; test: cell-based
[9] = biological target: T3, human DAT; test: cell-based
Protocol: as §1, §2

[10] = stated without reference; cited from earlier work
[11] = after levamisole administration; ref Hess et al., 2013; cited from earlier work
[12] = in vivo; conditions: human, plasma, po, 50 mg
[13] = ref Lin and Tsai, 2006; cited from earlier work
[14] = IC50 uptake inhibition NET in the absence of cocaine
[15] = IC50 uptake inhibition DAT in the absence of cocaine, allosteric interaction experiment, dopamine uptake
[16] = IC50 uptake inhibition DAT, HEK293 stably expressing human DAT, substrate [3H]dopamine 0.1 μM, 5 min preincubation

T1 sequence (P31645 whole entry): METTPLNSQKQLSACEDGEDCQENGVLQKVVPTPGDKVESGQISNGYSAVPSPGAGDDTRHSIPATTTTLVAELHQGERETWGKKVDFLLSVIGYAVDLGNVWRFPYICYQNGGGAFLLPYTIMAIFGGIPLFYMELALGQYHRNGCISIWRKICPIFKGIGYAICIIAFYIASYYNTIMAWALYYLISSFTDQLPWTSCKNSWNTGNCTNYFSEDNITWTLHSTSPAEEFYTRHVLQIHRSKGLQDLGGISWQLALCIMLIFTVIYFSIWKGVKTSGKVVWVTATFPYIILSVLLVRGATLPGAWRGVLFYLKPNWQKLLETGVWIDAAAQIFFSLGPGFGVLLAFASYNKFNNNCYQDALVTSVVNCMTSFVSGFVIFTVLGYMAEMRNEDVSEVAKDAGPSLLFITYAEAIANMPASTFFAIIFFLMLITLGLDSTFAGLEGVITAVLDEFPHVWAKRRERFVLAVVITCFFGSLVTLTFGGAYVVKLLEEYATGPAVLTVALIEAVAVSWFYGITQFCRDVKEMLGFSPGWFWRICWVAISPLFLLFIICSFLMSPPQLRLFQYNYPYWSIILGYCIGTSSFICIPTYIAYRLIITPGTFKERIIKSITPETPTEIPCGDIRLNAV

For `NC1=NCC(c2ccccc2)O1` (stereo not drawn) [aminorex], the “Dixon plot: binding relative to cocaine at SERT” value [1] was “mutually exclusive manner”, the “SERT inhibited at higher concentrations than NET and DAT” value [1] was 20 fold and the “SERT inhibitory effect compared to cocaine” value [1] was “more than 10 fold”. For the same molecule, the “Dixon plot: binding relative to cocaine at NET” value [2] was “mutually exclusive manner”, the “Dixon plot: binding relative to cocaine at DAT” value ([3]; uptake inhibition with one inhibitor varied at fixed concentration of the other) was “mutually exclusive manner” and the “substrate efflux SERT” value [4] was “strong release; also recorded: significant substrate release”. The “substrate efflux NET” value ([5]; 3 or 10 μM aminorex, presence and absence of 10 μM monensin) was “slight increase; also recorded: only a slight response”, the “substrate efflux DAT” value ([6]; 50 μM aminorex, presence and absence of 10 μM monensin) was “no releasing effect; also recorded: completely absent” and the IC50 ([7]; IC50 uptake inhibition SERT) was 18.4 ± 1.12 µM. For the same molecule, the IC50 ([7]; IC50 uptake inhibition SERT in the absence of cocaine) was 26.3 ± 1.03 µM, the IC50 ([8]; IC50 uptake inhibition NET) was 0.33 µM and < 1 µM and the IC50 [8, 14] was 1.97 ± 1.2 µM. For the same molecule, the IC50 [9, 15] was 0.71 ± 1.05 µM, the IC50 [9, 16] was 0.85 µM and 0.855 µM and < 1 µM and the pKa [10] was 7.4. For the same molecule, the “time aminorex could be detected in human urine” value [11] was “up to 54 h”.

In the case of `c1ccc([C@H]2CN3CCSC3=N2)cc1` [levamisole], the “less potent than cocaine in blocking norepinephrine uptake” value [2] is reported as 100 fold, the “less potent than cocaine in blocking dopamine uptake” value ([3]; relative to cocaine) is reported as 300 fold and the “substrate efflux NET” value ([5]; 100 μM levamisole, absence of monensin, [3H]MPP+ preloaded) is reported as “slight increase; also recorded: slight increased substrate efflux”. For the same molecule, the “substrate efflux DAT” value ([6]; 100 μM levamisole, absence of monensin, [3H]dopamine preloaded) was “no efflux was observed; also recorded: could not detect substrate efflux”, the Cmax [12] was ~1500 nM and the IC50 ([8]; IC50 uptake inhibition NET) was 74.5 µM. The IC50 [8, 14] was 521 ± 2.3 µM, the IC50 [9, 15] was 476 ± 1.54 µM and the IC50 [9, 16] was 209.9 ± 1.31 µM. For the same molecule, the pKa [10] was 7 and the “blood–brain barrier permeation” value [13] was “readily permeates the blood–brain barrier”.
